Data reported in patent US9718790B2, “Triazine derivative and pharmaceutical composition having an analgesic activity comprising the same” (SHIONOGI & CO., LTD., priority 2010, dated 2017).
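Further: stimulus was 50 nM ATP with fluorescence followed for 3 min, and the response per well was peak post-ATP fluorescence divided by the reading at measurement start.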

The molecules below were run against human P2X3 receptor (Homo sapiens (Human), UniProt P56373) (assay: Evaluation of human P2X3 receptor inhibitory activity (Fluo-3 calcium fluorescence, FDSS 3000, ATP stimulation)). Details: C6BU-1 cells stably expressing human P2X3 receptor.
Sequence of human P2X3 receptor (P56373 whole entry): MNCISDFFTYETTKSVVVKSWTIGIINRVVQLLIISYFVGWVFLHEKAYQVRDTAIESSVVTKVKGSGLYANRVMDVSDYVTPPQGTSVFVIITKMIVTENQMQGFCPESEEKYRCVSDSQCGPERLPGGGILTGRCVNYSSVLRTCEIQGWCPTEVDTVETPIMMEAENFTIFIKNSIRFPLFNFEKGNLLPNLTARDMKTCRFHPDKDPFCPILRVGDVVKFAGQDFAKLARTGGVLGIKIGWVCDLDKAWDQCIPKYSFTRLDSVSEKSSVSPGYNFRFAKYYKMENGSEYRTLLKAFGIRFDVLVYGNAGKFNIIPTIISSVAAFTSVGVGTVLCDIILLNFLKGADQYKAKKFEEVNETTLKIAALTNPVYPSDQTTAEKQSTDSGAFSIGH
Assay type: cell-based
With `CCCOc1ccc(/N=c2\[nH]c(=O)n(C(C)(C)CC(=O)OCC)c(=O)n2Cc2ccc(Cl)cc2)cc1` [Compound I-0821] the IC50 was 50 nM.
Molecule `CC(C)Oc1ccc(/N=c2\[nH]c(=O)n([C@@H]3C[C@H]3C(=O)OC(C)(C)C)c(=O)n2Cc2ccc(Cl)cc2)cc1F` [Compound I-0604] has an IC50 of 13 nM.
Molecule `CC(C)Oc1ccc(/N=c2\[nH]c(=O)n(Cc3ccc[nH]c3=O)c(=O)n2Cc2ccc(Cl)cc2)cc1F` [Compound I-0685] has an IC50 of 8 nM.
Molecule `CC1(C)OCC(Cn2c(=O)[nH]/c(=N\c3ccc4nc(C5CC5)sc4c3)n(Cc3ccc(Cl)cc3)c2=O)CO1` [Compound I-1982] has an IC50 of 9 nM.
For `COC(=O)Cn1c(=O)[nH]/c(=N\c2ccc(OC3CCC3)cc2)n(Cc2ccc(Cl)cc2)c1=O` [Compound I-1939], the IC50 was 30 nM.
With `Cc1ccc(Cn2c(=O)n(CCCC(=O)O)c(=O)[nH]/c2=N\c2ccc(Oc3ccnc(C)c3)cc2)cc1` [Compound I-1405] the IC50 was 26 nM.
`COC(=O)[C@@H](C)Cn1c(=O)[nH]/c(=N\c2ccc(OCC(C)C)cc2)n(Cc2ccc(C)cc2)c1=O` [Compound I-0812] was tested, and the IC50 was 33 nM.
Work on `CCc1nc2ccc(/N=c3\[nH]c(=O)n(C[C@H](C)C(=O)OC)c(=O)n3Cc3ccc(Cl)cc3)cc2o1` [Compound I-1326] yielded an IC50 of 217 nM.
`Cc1ccc(Cn2c(=O)n([C@@H](C)[C@@H](C)C(=O)O)c(=O)[nH]/c2=N\c2ccc(CC(C)C)c(Cl)c2)cc1` [Compound I-1443] was tested, and the IC50 was 6 nM.
`CCCCCc1ccc(/N=c2\[nH]c(=O)n(C[C@H](C)C(=O)OC)c(=O)n2Cc2ccc(C)cc2)cc1` [Compound I-1203] was tested, and the IC50 was 532 nM.

Same assay, conditions: C6BU-1 cells stably expressing human P2X3 receptor, Fluo-3 fluorescence, FDSS 3000
In the case of `C[C@@H](C(=O)O)[C@H](C)n1c(=O)[nH]/c(=N\c2ccc3[nH]ccc3c2)n(Cc2ccc(Cl)cc2)c1=O` [Compound I-1781], the IC50 is reported as 518 nM.
With `COC(=O)CCn1c(=O)[nH]/c(=N\Nc2ccc(OC)cc2)n(Cc2ccc(C)cc2)c1=O` [Compound I-1801] the IC50 was 687 nM.
With `CCc1nc2ccc(/N=c3\[nH]c(=O)n(CC(N)=O)c(=O)n3Cc3ccc(Cl)cc3)cc2s1` [Compound I-1805] the IC50 was 5 nM.
`Cc1ccc(Cn2c(=O)n(CC3(C(=O)O)CC3)c(=O)[nH]/c2=N\c2ccc(OCC3CC3)cc2)cc1` [Compound I-0915] showed an IC50 of 75 nM.
Molecule `CCc1nc2ccc(/N=c3\[nH]c(=O)n(CCCNC(C)=O)c(=O)n3Cc3ccc(Cl)cc3)cc2s1` [Compound I-1613] has an IC50 of 6 nM.
`COC(=O)[C@H](C)[C@H](C)n1c(=O)[nH]/c(=N\c2ccc3nc(C)[nH]c3c2)n(Cc2ccc(Cl)cc2)c1=O` [Compound I-1795] gave an IC50 of 795 nM.
For `COC(=O)[C@H](C)[C@H](C)n1c(=O)[nH]/c(=N\c2ccc(OC(C)C)c(F)c2)n(Cc2ccc(C)cc2)c1=O` [Compound I-0967], the IC50 was 19 nM.
For `CCc1nc2ccc(/N=c3\[nH]c(=O)n(CC(=O)NCCO)c(=O)n3Cc3ccc(Cl)cc3)cc2s1` [Compound I-1808], the IC50 was 4 nM.

Same assay, conditions: human P2X3 receptor, Test Example 1
`CNC(=O)c1cc(Oc2ccc(/N=c3\[nH]c(=O)n(C4CC4)c(=O)n3Cc3ccc(Cl)cc3)cc2)ccn1` [Compound I-2309] showed an IC50 of 2 nM.
Work on `CCn1c(=O)[nH]/c(=N\c2ccc(Oc3cncc(C(N)=O)n3)cc2)n(Cc2ccc(Cl)cc2)c1=O` [Compound I-2284] yielded an IC50 of under 4 nM.
With `C[C@@H](C(N)=O)n1c(=O)[nH]/c(=N\c2ccc(Oc3ccon3)cc2)n(Cc2ccc(Cl)cc2)c1=O` [Compound I-2501] the IC50 was 57 nM.
`O=c1[nH]/c(=N\c2ccc(Oc3nccs3)cc2)n(Cc2ccc(Cl)cc2)c(=O)n1C[C@@H](O)CO` [Compound I-2506] gave an IC50 of 14 nM.
`CCOC(=O)CCCn1c(=O)[nH]/c(=N\c2ccc(OCC)c(Cl)c2)n(Cc2ccc(C)cc2)c1=O` [Compound I-0862] gave an IC50 of 10 nM.
For `CCn1c(=O)[nH]/c(=N\c2ccc(Oc3ncccc3C(=O)O)cc2)n(Cc2ccc(Cl)cc2)c1=O` [Compound I-2366], the IC50 was 90 nM.
For `Cc1ccc(Cn2c(=O)n(C[C@H](C)C(=O)O)c(=O)[nH]/c2=N\c2cc(Cl)cc(Cl)c2)cc1` [Compound I-1500], the IC50 was 897 nM.
`CCn1c(=O)[nH]/c(=N\c2ccc(Oc3cncc(C(=O)OC)n3)cc2)n(Cc2ccc(Cl)cc2)c1=O` [Compound I-2270] gave an IC50 of under 4 nM.
